Seven molecules from patent US7338974B2, “Macrocyclic diaminopropanes as beta-secretase inhibitors” (Bristol-Myers Squibb Company, priority 2005, dated 2008) can be followed below.

The conditions of data set [1]: rcm bond, 15-membered ring.
A further data set deals with T1, BACE1 enzyme (Homo sapiens, UniProt P56817).
T1 construct: The HEK293-9B.A1 cell line, which overexpresses the BACE1 enzyme, was derived from HEK293 cells; endogenous in cells; washed membrane pellet / cell homogenate
Kind of data set: Radioligand displacement assay with a radiolabeled BACE inhibitor on HEK293-9B.A1 cell homogenate. The following applies: displacement of 1 nM tritiated radioligand, HEK293-9B.A1 homogenate, pH 5.0, 1.5 hr at 25° C.; read-out: Activity Rating (Activity based on IC50 values). It is filed as binding. The source says: There are a number of methods by which inhibitors of the BACE enzyme can be identified experimentally. The enzyme can be obtained from membrane samples from natural tissues or cultured cells or can be expressed recombinantly in a host cell by well known methods of molecular biology. The whole enzyme or a portion thereof can be expressed, for example, in bacterial, insect or mammalian cells to obtain a catalytically active enzyme species. The enzymatic activity and/or ligand binding capability of the enzyme can be assessed within these membrane samples, or the enzyme can be purified to varying extents. As an illustrative example, the nucleic acid sequence encoding the pro and catalytic domains of human BACE can be appended on the 5′ end with an untranslated and signal sequence from the gene for acetylcholinesterase, and on the 3′ end with a sequence encoding a poly-histidine tag. This cDNA can then be expressed in Drosophila melanogaster S2 cells in which the signal and pro sequences of the transcribed/translated protein are removed by cellular proteases and the catalytic domain, appended by a C-terminal poly-histidine tag, is secreted out into the cellular medium. The enzyme can then be purified from the culture medium by nickel affinity chromatography by methods well known to those trained in the art [Mallender, W. et al., “Characterization of recombinant, soluble beta-secretase from an insect cell expression system.” Mol. Pharmacol. 2001, 59: 619-626]. Similar strategies for expressing and purifying various forms of BACE in bacterial, mammalian and other cell types would be known to one skilled in the art. A preferred method for determining the potency of a test compound in binding to the BACE enzyme is by moitoring the displacement of a suitable radioligand.
Radioligand displacement assays with a radiolabeled BACE inhibitor (WO 2004 013098, compound 3, where the methoxy group is substituted for C(3H)3) were carried out using standard methods (Keen, M. (1999) in Receptor Binding Techniques (Walker, J. M. ed) p. 106 Humana Press, Totowa, N.J.). The HEK293-9B.A1 cell line, which overexpresses the BACE1 enzyme, was derived from HEK293 cells (Simmons, N. L. (1990) A cultured human renal epithelioid cell line responsive to vasoactive intestinal peptide. Exp. Physiol. 75:309-19.) by RAGE™ (Harrington, J. J. et al. (2001) Creation of genome-wide protein expression libraries using random activation of gene expression. Nat. Biotechnol. 19:440-5.; U.S. Pat. Nos. 6,410,266 and 6,361,972). T225 flask cultures of HEK293-9B.A1 were grown to 80% confluency in DMEM supplemented with 2 mM L-glutamine, 10 μg/ml penicillin, 10 μg/ml streptomycin, 3 μg/ml puromycin, 100 nM methotrexate, and 10% fetal bovine serum (Invitrogen, Carlsbad, Calif.), harvested, and resuspended at 2×10^8 cells per 10 ml of lysis buffer consisting of 50 mM HEPES pH 7.0 containing a protease inhibitor cocktail of AEBSF 104 μM, aprotinin 80 nM, leupeptin 2 μM, bestatin 4 μM, pepstatin A 1.5 μM, and E-64 1.4 μM (0.1% of protease inhibitor cocktail P8340, Sigma-Aldrich, St. Louis, Mo.) at 4° C. The resuspended cells were homogenized using a Polytron (Brinkman, Westbury, N.Y.) at setting 6 for 10 sec., then centrifuged at 48,000×g for 10 min. The resulting pellet was washed by repeating the resuspension, homogenization and centrifugation steps. The final pellet was resuspended in buffer at 4° C. to yield a total protein concentration of 5 mg/ml, then aliquots were frozen in liquid nitrogen for further storage at −70° C. Immediately before carrying out a binding assay, an aliquot of cell homogenate was thawed and diluted to a concentration of 100 μg/ml in assay buffer consisting of 50 mM HEPES pH 5.0 and 0.1% CHAPSO. […]
(Loss of bound radioactivity is the signal in a displacement assay; it reports binding, not function.)

Read-outs that look alike come from different tables or passages of the source.

T1 sequence (P56817 46-501): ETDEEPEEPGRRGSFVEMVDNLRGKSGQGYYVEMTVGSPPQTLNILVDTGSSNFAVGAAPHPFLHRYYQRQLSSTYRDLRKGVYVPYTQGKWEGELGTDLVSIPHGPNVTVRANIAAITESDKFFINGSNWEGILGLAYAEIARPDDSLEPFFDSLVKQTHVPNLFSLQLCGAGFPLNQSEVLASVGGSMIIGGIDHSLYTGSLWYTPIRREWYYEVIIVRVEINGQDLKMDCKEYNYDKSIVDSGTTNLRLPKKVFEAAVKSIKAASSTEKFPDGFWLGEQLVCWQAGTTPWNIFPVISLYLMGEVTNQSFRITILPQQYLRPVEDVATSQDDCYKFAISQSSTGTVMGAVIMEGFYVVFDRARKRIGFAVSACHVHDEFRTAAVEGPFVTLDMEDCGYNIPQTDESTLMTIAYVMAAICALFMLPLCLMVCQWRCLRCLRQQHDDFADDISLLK

In data set [1] (from C=CCOC1CC(NC[C@@H](O)[C@H](Cc2ccccc2)NC(=O)C(CC=C)N2CCCC2=O)c2cc(OC)ccc21, Grubbs II (20 mol%)/TsOH.H2O, CH2Cl2, 8.75 mM, 25.0 °C, 18.0 h), `COc1ccc2c(c1)C1CC2OCC=CCC(N2CCCC2=O)C(=O)N[C@@H](Cc2ccccc2)[C@H](O)CN1` (stereo partly drawn) [Example 1, (4R,5S)-5-Benzyl-4-hydroxy-18-methoxy-8-(2-oxo-pyrrolidin-1-yl)-13-oxa-2,6-diaza-tricyclo[12.6.1.0^15,20]henicosa-10,15(20),16,18-tetraen-7-one] yielded a ring closure, yield after HPLC of 97%. For the same molecule, the IC50 – broadly, the midpoint of a concentration-inhibition curve – at BACE1 enzyme was greater than 1000 nM.

Consider `COc1ccc2c(c1)C1CC2OCCCCC(N2CCCC2=O)C(=O)N[C@@H](Cc2ccccc2)[C@H](O)CN1` (stereo partly drawn) [Example 2, (4R,5S)-5-Benzyl-4-hydroxy-18-methoxy-8-(2-oxo-pyrrolidin-1-yl)-13-oxa-2,6-diaza-tricyclo[12.6.1.0^15,20]henicosa-15(20),16,18-trien-7-one], for which the IC50 on BACE1 enzyme is greater than 1000 nM.

For the molecule `COc1ccc2c(c1)[C@@H]1C[C@H]2OCC=CC[C@H](N2CCCC2=O)C(=O)N[C@@H](Cc2cc(F)cc(F)c2)[C@H](O)CN1` [Example 3, (1S,4R,5S,8S,14R)-5-(3,5-Difluoro-benzyl)-4-hydroxy-18-methoxy-8-(2-oxo-pyrrolidin-1-yl)-13-oxa-2,6-diaza-tricyclo[12.6.1.0^15,20]henicosa-10,15(20),16,18-tetraen-7-one], the ring closure, yield after HPLC in data set [1] (from C=CCO[C@@H]1C[C@H](NC[C@@H](O)[C@H](Cc2cc(F)cc(F)c2)NC(=O)[C@H](CC=C)N2CCCC2=O)c2cc(OC)ccc21, Hoveyda-Grubbs II (20 mol%), CH2Cl2, 7.15 mM, 25.0 °C, 16.0 h) amounted to 70%. In addition, at BACE1 enzyme, the IC50 was 10 to 1000 nM.

As to `CCCC[C@H]1CCN([C@H]2CC=CCO[C@@H]3C[C@H](NC[C@@H](O)[C@H](Cc4cc(F)cc(F)c4)NC2=O)c2cc(OC)ccc23)C1=O` [Example 4, (1S,4R,5S,8S,14R)-8-((S)-3-Butyl-2-oxo-pyrrolidin-1-yl)-5-(3,5-difluoro-benzyl)-4-hydroxy-18-methoxy-13-oxa-2,6-diaza-tricyclo[12.6.1.0^15,20]henicosa-10,15(20),16,18-tetraen-7-one], in data set [1] (from C=CCO[C@@H]1C[C@H](NC[C@@H](O)[C@H](Cc2cc(F)cc(F)c2)NC(=O)[C@H](CC=C)N2CC[C@H](CCCC)C2=O)c2cc(OC)ccc21, Hoveyda-Grubbs II (10 mol%), CH2Cl2, 25.0 °C, 72.0 h), the ring closure, yield after HPLC turned out to be 46%. Further, the IC50 on BACE1 enzyme was less than 10 nM.

As to `CCCC[C@H]1CCN([C@H]2CCCCO[C@@H]3C[C@H](NC[C@@H](O)[C@H](Cc4cc(F)cc(F)c4)NC2=O)c2cc(OC)ccc23)C1=O` [Example 5, (1S,4R,5S,8S,14R)-8-((S)-3-Butyl-2-oxo-pyrrolidin-1-yl)-5-(3,5-difluoro-benzyl)-4-hydroxy-18-methoxy-13-oxa-2,6-diaza-tricyclo[12.6.1.0^15,20]henicosa-15(20),16,18-trien-7-one], the IC50 on BACE1 enzyme was less than 10 nM.

In the case of `CCC(C)[C@@]1(NC(C)=O)CCN([C@H]2CC=CCO[C@@H]3C[C@H](NC[C@@H](O)[C@H](Cc4ccccc4)NC2=O)c2cc(OC)ccc23)C1=O` (stereo partly drawn) [Example 6, N—[(S)-1-((1S,4R,5S,8S,14R)-5-Benzyl-4-hydroxy-18-methoxy-7-oxo-13-oxa-2,6-diaza-tricyclo[12.6.1.0^15,20]henicosa-10,15(20),16,18-tetraen-8-yl)-3-sec-butyl-2-oxo-pyrrolidin-3-yl]-acetamide], the ring closure, yield after HPLC in data set [1] (from C=CCO[C@@H]1C[C@H](NC[C@@H](O)[C@H](Cc2ccccc2)NC(=O)[C@H](CC=C)N2CC[C@](NC(C)=O)(C(C)CC)C2=O)c2cc(OC)ccc21, Hoveyda-Grubbs II (10 mol%), dichloroethane, 50.0 °C, 16.0 h) worked out at 50%. For the same molecule, on BACE1 enzyme, the 50% inhibitory concentration (IC50) was less than 10 nM.

`COc1ccc2c(c1)[C@@H]1C[C@H]2OCC=CC[C@H](N2CC[C@H](CC(C)C)C2=O)C(=O)N[C@@H](Cc2ccccc2)[C@H](O)CN1` [Example 7, (1S,4R,5S,8S,14R)-5-Benzyl-4-hydroxy-8-((S)-3-isobutyl-2-oxo-pyrrolidin-1-yl)-18-methoxy-13-oxa-2,6-diaza-tricyclo[12.6.1.0^15,20]henicosa-10,15(20),16,18-tetraen-7-one] gave a ring closure, yield after HPLC in data set [1] (from C=CCO[C@@H]1C[C@H](NC[C@@H](O)[C@H](Cc2ccccc2)NC(=O)[C@H](CC=C)N2CC[C@H](CC(C)C)C2=O)c2cc(OC)ccc21, Hoveyda-Grubbs II (10 mol%), CH2Cl2, 8.9 mM, 25.0 °C, 16.0 h) of 75%. At BACE1 enzyme, the IC50 was less than 10 nM.
